Experimental findings from patent US8952157B2, “Apoptosis-inducing agents for the treatment of cancer and immune and autoimmune diseases” (AbbVie Inc., priority 2008, dated 2015) are described below.

Like-named read-outs stand apart in the source and are kept apart here.

For the assay, the target named is GST-Bcl-2 (Homo sapiens (Human), UniProt P10415). Put plainly: Time Resolved-Fluorescence Resonance Energy Transfer (TR-FRET) Bcl-2 binding assay. In short, it runs like this: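 Competition TR-FRET: GST-Bcl-2 with fluorescent Bak peptide probe and Tb-anti-GST antibody, compounds serially diluted from 50 μM (2× start, 10% DMSO).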
(In general: TR-FRET usually uses a lanthanide donor and a delayed reading to cut background.)

Where [1] appears, read: GST-Bcl-2 1 nM, F-Bak peptide probe 100 nM, Tb-anti-GST antibody 1 nM, Ki by Wang's equation.

Sequence of GST-Bcl-2 (P10415 whole entry): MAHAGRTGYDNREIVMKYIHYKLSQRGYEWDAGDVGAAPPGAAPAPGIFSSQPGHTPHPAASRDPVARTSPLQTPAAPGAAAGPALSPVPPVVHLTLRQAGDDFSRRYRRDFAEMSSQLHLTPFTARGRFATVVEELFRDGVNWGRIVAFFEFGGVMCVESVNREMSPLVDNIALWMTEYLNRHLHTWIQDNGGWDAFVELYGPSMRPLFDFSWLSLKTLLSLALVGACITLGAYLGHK

By Ki is commonly meant the equilibrium dissociation constant of an inhibitor or competing ligand from its target. High values mean weaker binding, low ones tighter binding. Under setting [1], `CCNCc1cccc(Oc2cc(N3CCN(Cc4ccccc4-c4ccc(Cl)cc4)CC3)ccc2C(=O)NS(=O)(=O)c2ccc(NCC3CCOCC3)c([N+](=O)[O-])c2)c1` [Example 81, 4-(4-((4′-chloro-1,1′-biphenyl-2-yl)methyl)piperazin-1-yl)-2-(3-((ethylamino)methyl)phenoxy)-N-((3-nitro-4-((tetrahydro-2H-pyran-4-ylmethyl)amino)phenyl)sulfonyl)benzamide] yielded a Ki of 31 nM.
Still for that read-out and setting: for `CN(C)CCCNc1ccc(S(=O)(=O)NC(=O)c2ccc(N3CCN(Cc4ccccc4-c4ccc(Cl)cc4)CC3)cc2Oc2ccc(Cl)cc2)cc1[N+](=O)[O-]` [Example 15, 4-(4-((4′-chloro-1,1′-biphenyl-2-yl)methyl)piperazin-1-yl)-2-(4-chlorophenoxy)-N-((4-((3-(dimethylamino)propyl)amino)-3-nitrophenyl)sulfonyl)benzamide] the value was 0.586 nM; for `CC1(C)CCC(CN2CCN(c3ccc(C(=O)NS(=O)(=O)c4ccc(NC[C@@H]5CCCOC5)c([N+](=O)[O-])c4)c(Oc4cc5cc[nH]c5cc4F)c3)CC2)=C(c2ccc(Cl)cc2)C1` [Example 258, 4-(4-{[2-(4-chlorophenyl)-4,4-dimethylcyclohex-1-en-1-yl]methyl}piperazin-1-yl)-2-[(6-fluoro-1H-indol-5-yl)oxy]-N-[(3-nitro-4-{[(3S)-tetrahydro-2H-pyran-3-ylmethyl]amino}phenyl)sulfonyl]benzamide], 0.083 nM; for `CN1CCN(Nc2ccc(S(=O)(=O)NC(=O)c3ccc(N4CCN(CC5=C(c6ccc(Cl)cc6)CC(C)(C)CC5)CC4)cc3Oc3cc4cc[nH]c4c(F)c3F)cc2[N+](=O)[O-])CC1` [Example 220, 4-(4-{[2-(4-chlorophenyl)-4,4-dimethylcyclohex-1-en-1-yl]methyl}piperazin-1-yl)-2-[(6,7-difluoro-1H-indol-5-yl)oxy]-N-({4-[(4-methylpiperazin-1-yl)amino]-3-nitrophenyl}sulfonyl)benzamide], 0.127 nM.
On the same count and under the same terms, with `CC1(C)CCC(CN2CCN(c3ccc(C(=O)NS(=O)(=O)c4ccc(NC5CCN(C6CCOCC6)CC5)c([N+](=O)[O-])c4)c(-c4ccc(N)nc4)c3)CC2)=C(c2ccc(Cl)cc2)C1` [Example 255, 2-(6-aminopyridin-3-yl)-4-(4-{[2-(4-chlorophenyl)-4,4-dimethylcyclohex-1-en-1-yl]methyl}piperazin-1-yl)-N-({3-nitro-4-[(1-tetrahydro-2H-pyran-4-ylpiperidin-4-yl)amino]phenyl}sulfonyl)benzamide] the figure was 7.01 nM.
The same measure, in the same setting: for `CC1(C)CCC(CN2CCN(c3ccc(C(=O)NS(=O)(=O)c4ccc(NC5CCN(C6CCOCC6)CC5)c([N+](=O)[O-])c4)c(Oc4ccccc4Cl)c3)CC2)=C(c2ccc(Cl)cc2)C1` [Example 115, 2-(2-chlorophenoxy)-4-(4-{[2-(4-chlorophenyl)-4,4-dimethylcyclohex-1-en-1-yl]methyl}piperazin-1-yl)-N-({3-nitro-4-[(1-tetrahydro-2H-pyran-4-ylpiperidin-4-yl)amino]phenyl}sulfonyl)benzamide] the value was 0.042 nM.
`CN1CCC(Nc2ccc(S(=O)(=O)NC(=O)c3ccc(N4CCN(CC5=C(c6ccc(Cl)cc6)CC(C)(C)CC5)CC4)cc3Nc3ccccc3Cl)cc2[N+](=O)[O-])CC1` [Example 230, 2-[(2-chlorophenyl)amino]-4-(4-{[2-(4-chlorophenyl)-4,4-dimethylcyclohex-1-en-1-yl]methyl}piperazin-1-yl)-N-({4-[(1-methylpiperidin-4-yl)amino]-3-nitrophenyl}sulfonyl)benzamide] displayed a Ki under setting [1] of 2.83 nM. This Ki is about 67-fold higher than that of the molecule before.
Molecule `CC1(C)CCC(CN2CCN(c3ccc(C(=O)NS(=O)(=O)c4ccc(N[C@H]5CC[C@H](N6CCOCC6)CC5)c([N+](=O)[O-])c4)c(Oc4cnc(N)c(Cl)c4)c3)CC2)=C(c2ccc(Cl)cc2)C1` [Example 324, Trans-2-[(6-amino-5-chloropyridin-3-yl)oxy]-4-(4-{[2-(4-chlorophenyl)-4,4-dimethylcyclohex-1-en-1-yl]methyl}piperazin-1-yl)-N-({4-[(4-morpholin-4-ylcyclohexyl)amino]-3-nitrophenyl}sulfonyl)benzamide] registered a Ki of less than 0.01 nM.
In the case of `CC1(C)CCC(CN2CCN(c3ccc(C(=O)NS(=O)(=O)c4ccc(NCCCN5CCOCC5)c([N+](=O)[O-])c4)c(Oc4ccc(F)cc4Cl)c3)CC2)=C(c2ccc(Cl)cc2)C1` [Example 120, 2-(2-chloro-4-fluorophenoxy)-4-(4-{[2-(4-chlorophenyl)-4,4-dimethylcyclohex-1-en-1-yl]methyl}piperazin-1-yl)-N-({4-[(3-morpholin-4-ylpropyl)amino]-3-nitrophenyl}sulfonyl)benzamide], affinity under setting [1] was put at a Ki of 0.214 nM.
Under setting [1], `CC1(C)CCC(CN2CCN(c3ccc(C(=O)NS(=O)(=O)c4ccc(OCC5(F)CCN(C6CC6)CC5)c([N+](=O)[O-])c4)c(Oc4cc5cc[nH]c5cc4F)c3)CC2)=C(c2ccc(Cl)cc2)C1` [Example 341, 4-(4-{[2-(4-chlorophenyl)-4,4-dimethylcyclohex-1-en-1-yl]methyl}piperazin-1-yl)-N-({4-[(1-cyclopropyl-4-fluoropiperidin-4-yl)methoxy]-3-nitrophenyl}sulfonyl)-2-[(6-fluoro-1H-indol-5-yl)oxy]benzamide] yielded a Ki of 0.017 nM. Compared with the last molecule, the Ki is about 13-fold lower.
With `CC1(C)CCC(CN2CCN(c3ccc(C(=O)NS(=O)(=O)c4ccc(NCC5CCOCC5)c([N+](=O)[O-])c4)c(Oc4cc(N)nc(N)c4)c3)CC2)=C(c2ccc(Cl)cc2)C1` [Example 380, 4-(4-{[2-(4-chlorophenyl)-4,4-dimethylcyclohex-1-en-1-yl]methyl}piperazin-1-yl)-2-[(2,6-diaminopyridin-4-yl)oxy]-N-({3-nitro-4-[(tetrahydro-2H-pyran-4-ylmethyl)amino]phenyl}sulfonyl)benzamide], the Ki under setting [1] turned out to be 8.27 nM.
The same measure, in the same setting: for `CN1CCC(Nc2ccc(S(=O)(=O)NC(=O)c3ccc(N4CCN(CC5=C(c6ccc(Cl)cc6)CC(C)(C)CC5)CC4)cc3Oc3cccc(O)c3)cc2[N+](=O)[O-])CC1` [Example 176, 4-(4-{[2-(4-chlorophenyl)-4,4-dimethylcyclohex-1-en-1-yl]methyl}piperazin-1-yl)-2-(3-hydroxyphenoxy)-N-({4-[(1-methylpiperidin-4-yl)amino]-3-nitrophenyl}sulfonyl)benzamide] the value was 0.24 nM.
In the case of `CN(C)C(=O)COc1cccc(Oc2cc(N3CCN(Cc4ccccc4-c4ccc(Cl)cc4)CC3)ccc2C(=O)NS(=O)(=O)c2ccc(NCC3CCOCC3)c([N+](=O)[O-])c2)c1` [Example 105, 4-(4-((4′-chloro-1,1′-biphenyl-2-yl)methyl)piperazin-1-yl)-2-(3-(2-(dimethylamino)-2-oxoethoxy)phenoxy)-N-((3-nitro-4-((tetrahydro-2H-pyran-4-ylmethyl)amino)phenyl)sulfonyl)benzamide], the Ki under setting [1] came to 3.57 nM.
Under setting [1], `CN1CCC(O)(CNc2ccc(S(=O)(=O)NC(=O)c3ccc(N4CCN(CC5=C(c6ccc(Cl)cc6)CC(C)(C)CC5)CC4)cc3Oc3cccc(F)c3)cc2[N+](=O)[O-])CC1` [Example 198, 4-(4-{[2-(4-chlorophenyl)-4,4-dimethylcyclohex-1-en-1-yl]methyl}piperazin-1-yl)-2-(3-fluorophenoxy)-N-[(4-{[(4-hydroxy-1-methylpiperidin-4-yl)methyl]amino}-3-nitrophenyl)sulfonyl]benzamide] yielded a Ki of less than 0.01 nM.
On the same count and under the same terms, for `Cc1ccccc1Oc1cc(N2CCN(CC3=C(c4ccc(Cl)cc4)CC(C)(C)CC3)CC2)ccc1C(=O)NS(=O)(=O)c1ccc(NC2CCN(C)CC2)c([N+](=O)[O-])c1` [Example 181, 4-(4-{[2-(4-chlorophenyl)-4,4-dimethylcyclohex-1-en-1-yl]methyl}piperazin-1-yl)-2-(2-methylphenoxy)-N-({4-[(1-methylpiperidin-4-yl)amino]-3-nitrophenyl}sulfonyl)benzamide] the value was 0.119 nM; for `CN(C)CCCNc1ccc(S(=O)(=O)NC(=O)c2ccc(N3CCN(CC4=C(c5ccc(Cl)cc5)CC(C)(C)CC4)CC3)cc2Oc2cccc(F)c2)cc1[N+](=O)[O-]` [Example 138, 4-(4-{[2-(4-chlorophenyl)-4,4-dimethylcyclohex-1-en-1-yl]methyl}piperazin-1-yl)-N-[(4-{[3-(dimethylamino)propyl]amino}-3-nitrophenyl)sulfonyl]-2-(3-fluorophenoxy)benzamide], 0.016 nM; for `CN1CCN(Nc2ccc(S(=O)(=O)NC(=O)c3ccc(N4CCN(CC5=C(c6ccc(Cl)cc6)CC(C)(C)CC5)CC4)cc3Oc3ccccc3Cl)cc2[N+](=O)[O-])CC1` [Example 184, 2-(2-chlorophenoxy)-4-(4-{[2-(4-chlorophenyl)-4,4-dimethylcyclohex-1-en-1-yl]methyl}piperazin-1-yl)-N-({4-[(4-methylpiperazin-1-yl)amino]-3-nitrophenyl}sulfonyl)benzamide], 0.155 nM.
In the case of `CC1(C)CCC(CN2CCN(c3ccc(C(=O)NS(=O)(=O)c4ccc(NCC5CCOC5)c([N+](=O)[O-])c4)c(Oc4cnc(N)c(Cl)c4)c3)CC2)=C(c2ccc(Cl)cc2)C1` (stereo not shown) [Example 389, 2-[(6-amino-5-chloropyridin-3-yl)oxy]-4-(4-{[2-(4-chlorophenyl)-4,4-dimethylcyclohex-1-en-1-yl]methyl}piperazin-1-yl)-N-({3-nitro-4-[(tetrahydrofuran-3-ylmethyl)amino]phenyl}sulfonyl)benzamide], the Ki under setting [1] is less than 0.01 nM.
Same read-out and setting: with `CC1(C)CCC(CN2CCN(c3ccc(C(=O)NS(=O)(=O)c4ccc(NCC5CCOCC5)c([N+](=O)[O-])c4)c(Oc4cccc5c4CCN(C(=O)OC(C)(C)C)C5)c3)CC2)=C(c2ccc(Cl)cc2)C1` [Example 260, tert-butyl 5-(5-(4-{[2-(4-chlorophenyl)-4,4-dimethylcyclohex-1-en-1-yl]methyl}piperazin-1-yl)-2-{[({3-nitro-4-[(tetrahydro-2H-pyran-4-ylmethyl)amino]phenyl}sulfonyl)amino]carbonyl}phenoxy)-3,4-dihydro isoquinoline-2(H)-carboxylate] the figure was 11.8 nM.
